According to paper PMC6712804 (BMC Cancer, 2019):
Several values for one entry are separate records, joined by “and”; a condition that tells them apart may be missing. Equal values may be shown once.

How the values were obtained:
[1] = tested on: MYCN, MCL-1, PARP, LC3I, LC3II, BRD-4, bcl-2 and BAX gene expression in BE-2c cells; assay: RNAseq gene expression analysis; assay type: cell-based; set-up: RNAseq expression value, MYCN gene / RNAseq expression value, MCL-1 gene / RNAseq expression value, LCII gene / RNAseq expression value, LCI gene / RNAseq expression value, BRD-4 gene / RNAseq expression value, Bcl-2 gene / RNAseq expression value, BAX gene: unit not given here; settings: 18 h, TEM alone 1 μM
Method: Total RNA was extracted using the RNeasy Micro Kit (Qiagen, Germantown, MD). Nano Drop was used to measure RNA concentration and purity and integrity was evaluated using Agilent Bioanalyzer System (Agilent Technologies, Santa Clara, CA). RNA sequencing and library preparation was performed using Maestro TruSeq Application (Perkin Elmer, Waltham, MA). Parameters used were optimized for 50 bp single-end reads with 20 million reads per sample. […] Gene expression analysis are reported for those pathways where protein analysis was performed (MYCN, MCL-1, PARP, LC3I, LC3II, BRD-4, bcl-2, and BAX).

[2] = compared to untreated controls
Method: NSG mice were injected subcutaneously with 5 × 10^5 BE2-c cells in a 50:50 PBS/Matrigel® solution. […] Bone marrow was collected at necropsy for a CFU-GM assay to assess bone marrow toxicity.

[3] = tested on: BE2-c subcutaneous tumors; assay: Anti-tumor activity in BE2-c tumor bearing NSG mice; assay type: in vivo; settings: follow up study, dosing three times per week
Method: A follow up study of the combination integrated control groups and modified dosing of MP1 plus TEM to three times per week at the doses described above. […] Tumor measurements were performed daily and treatments began on the first day the tumor achieved 2 mm^3 in size.

[4] = tested on: OXPHOS (OCR) and glycolysis (ECAR) in BE-2c cells; assay: Metabolic flux analysis and cell energy phenotype (XFp Seahorse); assay type: cell-based; settings: 18 h, metformin 5 mM
Method: Six wells of an XFp culture plate were seeded with 15,000 BE-2c cells/well in 80 μL DMEM with 10% FBS. […] The XFp Cell Energy Phenotype assay utilizes oligomycin as an inhibitor of ATP synthase and FCCP which is a mitochondrial uncoupling reagent. Oligomycin inhibits mitochondrial ATP production leading to a compensatory increase in glycolysis to meet energy demands. FCCP depolarizes the mitochondrial membrane driving the oxygen consumption rates higher as mitochondria restore polarization. The results were graphed on a grid indicating degree of aerobic/glycolytic metabolism and energetic/quiescent phenotypes.

SMILES	Change (fold change treatment over control), BAX gene [1]	Change (fold change treatment over control), BRD-4 gene [1]	Change (fold change treatment over control), Bcl-2 gene [1]	Change (fold change treatment over control), MCL-1 gene [1]	Change (fold change treatment over control), MYCN gene [1]	Change (fold change treatment over control), PARP1 gene [1]	RNAseq expression value, BAX gene ([1]; replicates #1-#3)	RNAseq expression value, BRD-4 gene ([1]; replicates #1-#3)	RNAseq expression value, Bcl-2 gene ([1]; replicates #1-#3)	RNAseq expression value, LCI gene ([1]; replicates #1-#3)	RNAseq expression value, LCII gene ([1]; replicates #1-#3)	RNAseq expression value, MCL-1 gene ([1]; replicates #1-#3)	RNAseq expression value, MYCN gene ([1]; replicates #1-#3)	RNAseq expression value, PARP1 gene ([1]; replicates #1-#3)	Bone marrow toxicity (CFU-GM assay) [2]	Complete responses [3]	Effect on OXPHOS and glycolysis [4]
CO[C@H]1C[C@@H]2CC[C@@H](C)[C@@](O)(O2)C(=O)C(=O)N2CCCC[C@H]2C(=O)O[C@H]([C@H](C)C[C@@H]2CC[C@@H](OC(=O)C(C)(CO)CO)[C@H](OC)C2)CC(=O)[C@H](C)/C=C(\C)[C@@H](O)[C@@H](OC)C(=O)[C@H](C)C[C@H](C)/C=C/C=C/C=C/1C [TEM, temsirolimus]	−1.14	−1.06	1.45	−1.12	1.0	−1.2	42.7 and 37.3 and 40.6	70.4 and 71.4 and 72.7	49.2 and 52.0 and 47.7	5.1 and 4.4 (2×)	92.7 and 92.5 and 89.7	281 and 282 and 276	2264 and 2140 and 2232	580 and 617 and 599	unaffected	no complete responses	
CN(C)C(=N)N=C(N)N [metformin]																	uncoupled OXPHOS metabolism without effects on glycolysis
